# What was measured:
# IgE = assay: Total IgE in serum, mite antigen-induced atopic dermatitis; assay type: in vivo, NC/Nga mice; conditions: for IgE: 2 weeks, serum; for total IgE level compared to the positive control group: p<0.01
# Description: 8-week-old NC/Nga mice (20-25 g) were purchased from Chungang Lab. Animal. After adapting for 1 week, the NC/Nga mouse was anesthetized with 90% ethyl ether (Ducsan, Korea) and hair was removed from the occipital region and the back of the mouse using depilatory cream (Reckitt Benckiser, France). After allowing micro wound healing for a day, 100 mg of mite antigen cream (Biostir, Inc. Japan) comprising Dermatophagoides farina, which causes atopic dermatitis, as a main ingredient was evenly applied on the ear, occipital region and back, 3 times a week (for 5 weeks, from week 9 to week 13). 2 hours before application of the mite antigen cream, 4% SDS solution was applied at the same area to increase transdermal absorption of the mite antigen cream by inducing the breakdown of skin fats and cuticle layer. From week 3 following the application, IgE value was measured to quantitate the degree of atopic dermatitis. Also during the drug treatment period (week 12 to week 13), 100 mg of the mite antigen cream was applied 3 times a week to prevent spontaneous healing of the atopic dermatitis.
# In order to induce atopic dermatitis, 100 mg of mite antigen cream was applied on the ear, occipital region and back of NC/Nga mouse (9 to 11 weeks old), except for the negative control group, 3 times a week, 2 hours after the application of 4% SDS solution. Three weeks later, it was observed whether atopic dermatitis was induced by checking skin rash, erythema, cornification, or the like. Atopic dermatitis was induced in all groups except for the negative control group. For drug treatment and evaluation of therapeutic effect, mice were grouped into 12 groups, 6 oral administration groups and 6 topical application groups (each consisting of negative control group, positive control group, macelignan low conc. group, macelignan high conc. group, nutmeg extract low conc. group, and nutmeg extract high conc. group), with n=5 per cage. During the following drug treatment and evaluation period of 2 weeks (12 to 13 weeks old), the negative control groups, which had not been treated with 4% SDS solution and mite antigen cream, were treated with physiological saline (oral administration group) or base cream (topical application group) every day, and the positive control groups, which had been treated with 100 mg of mite antigen cream 2 hours after application of 4% SDS solution, 3 times every week, were treated with physiological saline (oral administration group) or base cream (topical application group). The oral administration groups were treated with 100 mg of mite antigen cream 2 hours after application of 4% SDS solution, 3 times every week, and were treated with macelignan or nutmeg extract at low concentration (50 mg/kg/day) or high concentration (150 mg/kg/day) every day. The topical application groups were treated with 100 mg of mite antigen cream 2 hours after application of 4% SDS solution, 3 times every week, and were treated with macelignan cream or nutmeg extract cream at low concentration (20 mg/kg/day) or high concentration (60 mg/kg/day) every day. Transepidermal water loss (TEWL), skin hydration and erythema index were measured one day before the end of the test. Serum was obtained by retro-orbital blood sampling. After the end of the test (14 weeks old) spleen and skin tissues from occipital region and back were sampled and stored at −70° C. ALN (axillary lymph node) was stored in DMEM containing 2% FBS (fetal bovine serum). The skin tissues were stored in 10% formalin solution.
# Blood was taken by retro-orbital blood sampling using a capillary tube (Chase Scientific Glass, Inc., USA), which was centrifuged at 13,000 rpm to obtain serum. IgE level was measured using a mouse IgE ELISA kit (Immunology Consultants Laboratory, Inc., USA).
# [1] = Clinical visual evaluation of skin lesion, atopic dermatitis model; assay type: in vivo, NC/Nga mice
# Description: In order to induce atopic dermatitis, 100 mg of mite antigen cream was applied on the ear, occipital region and back of NC/Nga mouse (9 to 11 weeks old), except for the negative control group, 3 times a week, 2 hours after the application of 4% SDS solution. Three weeks later, it was observed whether atopic dermatitis was induced by checking skin rash, erythema, cornification, or the like. Atopic dermatitis was induced in all groups except for the negative control group. For drug treatment and evaluation of therapeutic effect, mice were grouped into 12 groups, 6 oral administration groups and 6 topical application groups (each consisting of negative control group, positive control group, macelignan low conc. group, macelignan high conc. group, nutmeg extract low conc. group, and nutmeg extract high conc. group), with n=5 per cage. […] Transepidermal water loss (TEWL), skin hydration and erythema index were measured one day before the end of the test. […]
# Prior to the end of the experiment, the lesions of the mice were photographed. The change of the skin lesion was evaluated visually.
# IL-4 secreting cells = assay: Counting of IL-4 secreting cells in the lungs (ELISpot), asthma model; assay type: in vivo, C57BL/6 (B6) male mice; conditions: oral 400 μg/g and 800 μg/g; vs vehicle (corn oil) group
# Description: 5 μL of allergen, AP (aspergillus protease, 1 mg/mL, Sigma-Aldrich, St. Louis, Mo.) was mixed with 45 μL of OVA (chicken egg ovalbumin, 0.5 mg/mL, Sigma-Aldrich). After 3 intraperitoneal injections with 4-day intervals, asthma was induced by 2 intranasal challenges with 4-day interval. The intranasal challenge was performed under isoflurane inhalational anesthesia. Macelignan dissolved in corn oil was orally administered every day.
# Within 24 hours after the last allergen challenge, the mouse was anesthetized by intraperitoneal injection of 0.1 mg/g sodium pentobarbital. After tracheal intubation, flexiVent (Scireq®, Montreal, Canada) was connected to maintain stable ventilation. Thereafter, striated muscle was relaxed by intravenous (IV) administration of 0.08 mg/kg pancuronium (Sigma-Aldrich). Following airway hypersensitivity test by IV administration of acetylcholine (Sigma-Aldrich), 1 mL of DPBS (Dulbecco's phosphate buffered saline) was injected twice into the intubation tube using a syringe for bronchioalveolar lavage. Thereafter, the chest was opened and the lungs were subjected to ELISpot assay. […]
# When asthma is induced in a mouse, Th2 cells in the lungs increase. […] After addition of substrate dissolved in 0.6% low melting agarose followed by incubation at 4° C., spots were counted within 24 hours to count the number of IL-4 secreting cells in the lungs.
# [2] = oral administration 50 and 150 mg/kg
# [3] = topical application 20 and 60 mg/kg
compound,measurement,setting,value
"COc1cc(C[C@H](C)[C@H](C)Cc2ccc3c(c2)OCO3)ccc1O (single isomer, unassigned) [macelignan]",IgE,IgE; oral administration 50 mg/kg/day,19.6 ± 13.5 µg/mL
same,IgE,IgE; oral administration 150 mg/kg/day,16.6 ± 5.3 µg/mL
same,total IgE level compared to the positive control group,IgE; [2],statistically significant decrease in total IgE level
same,total IgE level compared to the positive control group,IgE; [3],statistically significant decrease in total IgE level
same,IgE,IgE; topical application (cream) 20 mg/kg/day,22.1 ± 3.6 µg/mL
same,IgE,IgE; topical application (cream) 60 mg/kg/day,18.6 ± 4.1 µg/mL
same,clinical visual evaluation of skin lesion,[1]; [2],"remarkable decrease in erythema/hemorrhage, dryness/scarring, edema, excoriation/erosion and lichenification and improvement in atopic dermatitis"
same,clinical visual evaluation of skin lesion,[1]; [3],"remarkable decrease in erythema/hemorrhage, dryness/scarring, edema, excoriation/erosion and lichenification and improvement in atopic dermatitis"
same,IL-4 secreting cells in the lungs,IL-4 secreting cells,decreased IL-4 secreting cells
